# Measured values as given in PMC8997995, “Amphiphilic Cell-Penetrating Peptides Containing Natural and Unnatural Amino Acids as Drug Delivery Agents” (Cells, 2022).
# Where two headings read alike, the source gives them in different places. Non-standard residues stand in square brackets, D forms with d. Residues, ends and D or L forms follow the SMILES beside them. Dip = N[C@H](C(=O)O)C(c1ccccc1)c1ccccc1
# What was measured:
# MDA-MB-468 cells = experiment: In vitro cytotoxicity (MTS) in MDA-MB-468 cells; format: cell-based, human; settings: MDA-MB-468, 10 µM, 24 h and 72 h incubation
# Method: SK-OV-3, CCRF-CEM, HEK-293, MDA-MB-468, LLC-PK1, and MES-SA were used to determine the cytotoxicity of the synthesized linear and cyclic peptides. About 5000, 10,000, and 50,000 cells were seeded for SK-OV-3, HEK-293, and CCRF-CEM cells, respectively, in 0.1 mL of medium per well of 96-well plates. […]
# Adhesive cells were detached with 0.05% trypsin/EDTA after 15 min. […] The cell viability was measured by utilizing Multi-Mode Microplate Reader (SpectraMax M5 model, Molecular Devices, San Jose, CA, USA) after adding 20 µL of the MTS reagent to each well and incubating for 3 additional hours. […] The percentage of cell viability was calculated using the following equation:(1) =(Average OD values of samples treated with the compound /Average OD values of no treatment samples )∗100
# SK-OV-3 cells = format: cell-based, human; settings: MTS, n = 3
# Method: SK-OV-3, CCRF-CEM, HEK-293, MDA-MB-468, LLC-PK1, and MES-SA were used to determine the cytotoxicity of the synthesized linear and cyclic peptides. About 5000, 10,000, and 50,000 cells were seeded for SK-OV-3, HEK-293, and CCRF-CEM cells, respectively, in 0.1 mL of medium per well of 96-well plates. An appropriate medium was used for each cell line (SK-OV-3: McCoy’s 5A with L-glutamine containing fetal bovine serum (FBS) (10%) and penicillin or streptomycin (1%); CCRF-CEM: RPMI-1640 medium with L-glutamine and sodium bicarbonate containing FBS (10%) and penicillin or streptomycin (1%); MDA-MB-468 cells: DMEM/F12 (1:1) (1×) with L-glutamine and 15 mM HEPES containing FBS (10%) and penicillin or streptomycin (1%); LLC-PK1 cells: Dulbecco’s Modified Eagle’s Medium with 4500 mg/L glucose, L-glutamine and sodium bicarbonate, without sodium pyruvate liquid containing FBS (10%) and penicillin or streptomycin (1%); MES-SA cells: consisting of half SK-OV-3 and half CCRF-CEM media; and HEK-293 cells: Minimum Essential Medium Eagle with Earle’s salts and sodium bicarbonate, without L-glutamine containing FBS (10%) and penicillin or streptomycin (1%)). Then, 20 µL of peptides containing 5% DMSO in water were added to each well.
# Adhesive cells were detached with 0.05% trypsin/EDTA after 15 min. The suspended cells were seeded in the medium 24 h prior to the experiment according to the previously reported procedure. The medium was changed before adding the peptides for adherent cells. Each concentration 5, 10, 25, 50, and 166 µM (containing 0.8% DMSO) had triplicate wells to minimize possible errors. […] The cell viability was measured by utilizing Multi-Mode Microplate Reader (SpectraMax M5 model, Molecular Devices, San Jose, CA, USA) after adding 20 µL of the MTS reagent to each well and incubating for 3 additional hours. […] The protocol manager was selected “endpoint” on the spectrophotometer’s software (SoftMax Pro 7). The 96-well plates were inserted inside spectrophotometer, and the data were acquired. The percentage of cell viability was calculated using the following equation:(1) =(Average OD values of samples treated with the compound /Average OD values of no treatment samples )∗100
# [1] = Circular dichroism, estimate of secondary structure; format: physicochemical; settings: CD, 100 µM peptide in water, principal component regression analysis
# Method: Samples were prepared in 100 µM concentration dissolved in water only. The cuvette with the 1 mm path length was used for all the measurements. The circular dichroism analysis was performed with a J-1500 Jasco spectrophotometer using nitrogen gas and PM-539 detector. Parameters were selected as follows: data interval 0.1 nm, data points 701, data pitch 0.1 nm, CD scale 200 mdeg/0.1 dOD, FL scale 200 mdeg/0.1 dOD, D.I.T 2 s, bandwidth 1 nm, cell length 1 mm, start mode immediately, scanning mode continuous, scanning speed 50 nm/min, shutter control auto, and N2 flowmeter manual. An average of three readings between 190 and 260 nm were collected for each sample. The analysis was carried out using one of Multivariate Regression Analyses, which is Principal Component Regression (PCR) with a basis set containing 26 proteins reference under the following conditions: standardization of result 100, replaced negative value to zero, and rejection percentage of 1%.
compound,measurement,setting,value
N=C(N)NCCC[C@@H]1NC(=O)[C@H](C(c2ccccc2)c2ccccc2)NC(=O)[C@H](CCCNC(=N)N)NC(=O)[C@H](C(c2ccccc2)c2ccccc2)NC(=O)[C@H](CCCNC(=N)N)NC(=O)[C@H](C(c2ccccc2)c2ccccc2)NC(=O)[C@H](CCCNC(=N)N)NC(=O)[C@H](C(c2ccccc2)c2ccccc2)NC(=O)[C@H](CCCNC(=N)N)NC(=O)[C@H](C(c2ccccc2)c2ccccc2)NC1=O [[DipR]5] (cyclo([Dip]R[Dip]R[Dip]R[Dip]R[Dip]R)),cytotoxicity,MDA-MB-468 cells,no significant cytotoxicity
same,reduction of cell proliferation,"SK-OV-3 cells; SK-OV-3, 10 µM, 72 h incubation",75%
same,reduction of cell proliferation,"SK-OV-3 cells; SK-OV-3, 25 µM, 24 h incubation",81%
same,Other (random coil),[1],49.9%
same,Turn,[1],16.6%
same,α-helix,[1],21.4%
same,β-sheet,[1],12.1%
